Patent publication US8193224B2, “Medicinal composition for prevention or treatment of parasitic protozoan infection” (Fujifilm Corporation, priority 2004, dated 2012)
Like-named read-outs stand apart in the source and are kept apart here.

Tests used:
Assay type in all cases: cell-based
[1] = system: Plasmodium falciparum K1 strain; assay: Chloroquine resistant-Plasmodium falciparum growth inhibition screening test; conditions: for EC50: chloroquine resistant K1 strain, 3H-hypoxanthine, 48 + 24 hours, read-out: 50% growth inhibition concentration P. falciparum K1; for Selective toxicity: chemotherapy index = EC50 rat L6 cells / EC50 chloroquine resistant P. falciparum
Protocol: In the present example, protozoa of Plasmodium falciparum K1 strain was used. RPMI-1640 medium sterilized with a filter to which human serum was added to be 5%, was used in the experiment. Malarial parasites were cultured under 3% O2 concentration, 4% Co2 concentration, 93% N2 concentration, and at a temperature of 37° C.
The compounds of the present invention to be used in the present test and the positive target drug (chloroquine) were dissolved in DMSO to make a test solution of a predetermined concentration. Cultured malarial parasite infected-erythrocytes were collected by centrifugation, and diluted with non-infected erythrocyte so that the early infection rate is 0.15%. Hematocrit level at that time was 2.5%. 200 μL of malaria infected solution was added to wells of a 96-well culture plate, and adjusted by adding a test solution containing drug of a predetermined concentration or a drug-free DMSO. Test solutions were taken by duplicates. After culturing for 48 hours at 37° C., 0.5 μCi radioactive tritium (3H)-labeled hypoxanthine was added to each well. After further culturing for 24 hours under the same conditions, it was collected on a glass fiber filter and washed with distilled water. Radiation intensity was measured with a beta plate liquid scintillation counter (Wallac), and malarial parasite infection rates of the test solution added group and of the control group were calculated. Growth inhibition rate was calculated with the following formula based on the malarial parasite infection rate obtained in the above, to obtain a 50% growth inhibition concentration (EC50). Growth inhibition rate (%)={1−(b−a)/(c−a)}×100 a: early infection rate b: infection rate when test solution was added c: infection rate of the control

[2] = system: Rat derived-L6 cells (rat skeletal myoblast cell); assay: Growth inhibition test of rat L6 cells; conditions: 72 hours
Protocol: (§1) Rat derived-L6 cells (rat skeletal myoblast cell) were used. As medium, RPMI1640 medium was supplemented so that L-glutamin (200 mM) is 1%, and fetal bovine serum 10%, and the medium was cultured under CO2 concentration 5%, at 37° C. The compounds of the present invention and the target drugs to be used in the test were dissolved in DMSO, to make a test solution of a predetermined concentration. Pre-culture was conducted and medium containing cells which have entered the logarithmic growth phase was taken to wells of a 96-well culture plate. Then, a test solution containing drug of a predetermined concentration or a drug-free DMSO was added. Test solutions were taken by duplicates. Culture plate was cultured for 72 hours in an incubator, to test the growth inhibition activity. Test was conducted as follows.
(§2) 10 μl of Alamar Blue aqueous solution was added to each well, and the resultant was further cultured for 2 hours. Next, the culture plate was placed on a fluorescent micro-plate reader (Spectramax Gemeni XS; US Molecular Device), radiated at an excited wavelength of 536 nm. Fluorescent intensity was measured at 588 nm, and residual rate of L6 cells of the test solution added group, and that of the control was calculated. Based on the cell residual rate obtained in the above, growth inhibition rate to L6 cells was calculated, to obtain a 50% growth inhibition concentration (EC50). Growth inhibition rate (%)={(C−A)/(B−A)}×100 A: primary cell count B: cell count of control, 3 days after C: cell count of wells added with a sample, 3 days after […]

[3] = system: Trypanosoma brucei rhodensiense (STIB 900 strain); assay: African trypanosome protozoa growth inhibition screening test; conditions: read-out: 50% growth inhibiting concentration Trypanosoma brucei rhod.
Protocol: In the present example, protozoa of Trypanosoma brucei rhodensiense (STIB 900 strain), a trypamastigote living in blood stream, was used. The medium used in the experiment was a MEM medium which was sterilized with a filter and supplemented with 25 mM N-2-hydroxyethylpiperazine-2-ethansulfonic acid […]), 1 g/L glucose, 1% MEM non-essential amino acid, 0.2 mM 2-mercaptoethanol, 2 mM sodium pyruvate, 0.1 mM hypoxanthine, and 15% heat-treated horse serum. The protozoa was cultured in an atmosphere of CO2 concentration 5%, at a temperature of 37° C.
The compounds of the present invention to be used in the present test and the positive target drug (melarsoprol) were dissolved in DMSO to make a test solution of a predetermined concentration. A medium containing 8×10^3 protozoa, and a test solution containing a drug of a predetermined concentration or a drug-free DMSO were added to wells of a 96-well culture plate, and subsequently, medium was added so that the amount in each well becomes 100 μL. Test solutions were taken by duplicates. After culturing the culture plate for 72 hours in an incubator, growth inhibition activity was tested. Test was conducted as follows. 10 μL of Alamar Blue aqueous solution was added to each well, and the resultant was further cultured for 2 hours. Next, the culture plate was placed on a fluorescent micro-plate reader (Spectramax Gemeni XS; US Molecular Device), radiated at an excited wavelength of 536 nm. Fluorescent intensity was measured at 588 nm, to calculate the trypanosome protozoa infected rate of the test solution added-group, and of the control group. From the protozoan infection rate obtained in the above, growth inhibition rate was calculated with the following formula, to obtain a 50% growth inhibition concentration (EC50). Growth inhibition rate (%)={1−(b−a)/(c−a)}×100 a: early infection rate b: infection rate when test solution was added c: infection rate of the control

[4] = Growth inhibition test of rat L6 cells
Protocol: as §1, §2

[5] = system: Trypanosoma brucei rhodensiense (STIB 900 strain); assay: African trypanosome protozoa growth inhibition screening test; conditions: chemotherapy index = EC50 rat L6 cells / EC50 African trypanosome protozoa
[6] = system: Leishmania donovani (MHOM/ET/67/L82 strain); assay: Leishmania protozoa growth inhibition screening test; conditions: MHOM/ET/67/L82 strain amastigote, pH 5.4, 72 hours, Alamar Blue, read-out: 50% growth inhibition concentration Leishmania donovani
Protocol: In the present example, Leishmania donovani (MHOM/ET/67/L82 strain) was used. Protozoa was subcultured in Syrian Golden hamster, from which an amastigote was obtained. In the experiment, SM medium supplemented with 10% heat-treated bovine fetal serum was used, which was adjusted to pH 5.4, and cultured in an atmosphere of 5% CO2 concentration, at 37° C.
The compounds of the present invention to be used in the present test and the positive target drug (miltefosine) were dissolved in DMSO to make a test solution of a predetermined concentration. After adding a medium containing a predetermined number of protozoa to wells of a 96-well culture plate and pre-treating, concentration of the amastigote was measured with CASY cell analysis system (Scharfe, Germany). Then, test solution containing a drug of a predetermined concentration or a drug-free DMSO was added. Test solutions were taken by duplicates. After culturing the culture plate for 72 hours in an incubator, growth inhibition activity was tested. Test was conducted as follows.
10 μL of Alamar Blue aqueous solution was added to each well, and the resultant was further cultured for 2 hours. Next, the culture plate was placed on a fluorescent micro-plate reader (Spectramax Gemeni XS; US Molecular Device), radiated at an excited wavelength of 536 nm. Fluorescent intensity was measured at 588 nm, and infection rate of leishmania protozoa of the test solution added-group and control was calculated, to obtain a 50% growth inhibition concentration (EC50). Growth inhibition rate (%)={1−(b−a)/(c−a)}×100 a: early infection rate b: infection rate when test solution was added c: infection rate of the control

[7] = system: Trypanosoma cruzi (Tulahuen C2C4 strain); assay: American trypanosome protozoa growth inhibition screening test; conditions: Tulahuen C2C4 strain in rat L6 cells, 96 hours, CPRG/Nonidet, read-out: 50% growth inhibition concentration Trypanosoma cruzi
Protocol: In the present example, amastigote and trypomastigote infected with rat L6 cells of protozoa of Trypanosoma cruzi (Tulahuen C2C4 strain) were used. As medium used in the test, RPMI 1640 medium containing L6 cells was supplemented so that L-glutamine (200 mM) becomes 1%, fetal bovine serum becomes 10%, which was cultured under CO2 concentration 5%, at 37° C.
The compounds of the present invention to be used in the test and the positive target agent (benznidazole) were dissolved in DMSO to make a test solution of a predetermined concentration. A medium containing 5×10^3 protozoa was added to wells of a 96-well culture plate, and pre-cultured for 48 hours. After replacing the medium, test solution containing drug of a predetermined concentration or a drug-free DMSO was added. Test solutions were taken by duplicates. After culturing the culture plate in an incubator for 96 hours, growth inhibition activity was tested. Test was conducted as follows.
50 μL of CPRG/Nonidet was added to each well, and allowed to rest for 2 to 6 hours. Next, the culture plate was placed on a fluorescent micro-plate reader, and the absorbance was measured at 540 nm. Growth inhibition rate was calculated with the following formula based on the protozoan infection rate which was obtained by calculating trypanosome infection rate of the test solution added group and control group, to obtain a 50% growth inhibition concentration (EC50). Growth inhibition rate (%)={1−(b−a)/(c−a)}×100 a: early infection rate b: infection rate when test solution was added c: infection rate of the control

[8] = Alamar Blue (Table 2), read-out: 50% growth inhibition concentration Cytotoxicity L6
[9] = Alamar Blue (Table 3), read-out: 50% growth inhibiting concentration Cytotoxicity L6
[10] = STIB 900 strain, blood stream form, 72 hours, Alamar Blue
[11] = L6 cells (rat skeletal myoblast), Alamar Blue (Table 2), read-out: 50% growth inhibition concentration Cytotoxicity L6
[12] = Trypanosoma brucei, STIB900, STIB 900 strain, blood stream form, 72 hours, Alamar Blue

Compound | EC50 [1] [µM] | EC50 [2, 8] [µM] | EC50 [2, 9] [µM] | EC50 [3, 10] [µM] | EC50 [6] [µM] | also measured
CCn1c(=Cc2cccc[n+]2C)sc(=CC=C2Sc3ccccc3N2C)c1=O [A-4] | 0.12 | 76 | 76 | 0.41 |  | 
CCn1c(=O)/c(=C/C=C2\Sc3ccccc3N2C)s/c1=C\c1cccc[n+]1CCO [A-5] |  |  |  |  |  | EC50 ([1]; Plasmodium falciparum, 72 h): 0.27 µM; Selective toxicity [1]: 150; EC50 at 72 h [4, 11]: 42 µM
CCn1c(=O)/c(=C/C=C2\Sc3ccccc3N2C)s/c1=C\c1cccc[n+]1CCOCCOCCOC [A-6] |  |  |  |  |  | Selective toxicity [5]: 340; EC50 ([1]; Plasmodium falciparum, 72 h): 0.19 µM; Selective toxicity [1]: 236; EC50 at 72 h [4, 11]: 44 µM; EC50 [3, 12]: 0.13 µM
CCn1c(=Cc2oc3ccccc3[n+]2CC)sc(=CC=C2N(C)c3ccccc3C2(C)C)c1=O [A-8] | 0.014 | 1.8 | 1.8 | 0.3 | 0.056 | EC50 [7]: 0.99 µM
CCn1c(=Cc2sc3c4ccccc4ccc3[n+]2CC)sc(=CC=C2SCCN2C)c1=O [A-9] | 0.074 | 8.1 | 8.1 | 0.14 | 0.023 | EC50 [7]: 4.1 µM
CCn1c(=O)/c(=C/C=C2\Sc3ccccc3N2C)s/c1=C\c1cccc[n+]1CCCCC(=O)O [A-12] |  |  |  |  |  | Selective toxicity [5]: 19; EC50 ([1]; Plasmodium falciparum, 72 h): 0.21 µM; Selective toxicity [1]: 84; EC50 at 72 h [4, 11]: 17 µM; EC50 [3, 12]: 0.9 µM
C=CCn1c(=Cc2oc3ccccc3[n+]2C)sc(=CC=C2Sc3ccccc3N2C)c1=O [A-13] |  |  | 13 | 0.11 | 0.047 | EC50 ([2]; Alamar Blue (Table 5), read-out: 50% growth inhibition concentration Cytotoxicity L6): 13 µM
CCn1c(=Cc2cc[n+](CC)c3ccccc23)sc(=CC=C2C=Cc3ccccc3N2C)c1=O [A-14] | 0.14 | 9.1 | 9.1 | 0.041 | 0.2 | EC50 [7]: 1.2 µM
O=C(Cn1ccnc1[N+](=O)[O-])NCc1ccccc1 [benznidazol, benznidazole, reference compound] |  |  |  |  |  | EC50 ([7]; Trypanosoma cruzi): 0.87 µM
Nc1nc(N)nc(Nc2ccc([As]3SCC(CO)S3)cc2)n1 (centres unmarked) [melarsoprol, reference compound] |  |  |  |  |  | Selective toxicity [5]: 1300; EC50 at 72 h [4, 9]: 7.8 µM; EC50 ([3]; Trypanosoma brucei, STIB900, 72 h): 0.006 µM
CCCCCCCCCCCCCCCCOP(=O)([O-])OCC[N+](C)(C)C [miltefosine, reference compound] |  |  |  |  |  | EC50 ([6]; Leishmania donovani): 0.28 µM
